# Experimental data: patent US20250064803A1, “DOSAGE REGIMENS FOR PARP7 INHIBITORS” (Ribon Therapeutics, Inc., priority 2021, published 2025)
# Where “and” joins values, the source holds several entries; their conditions need not be identical. Identical values can stand only once. Entries after “also recorded” stand apart in the source; their conditions may differ.
# How the values were obtained:
# [1] = Particle size by laser diffraction (USP 42 <429>, Malvern Mastersizer 3000); type: physicochemical
# Excerpt: The compound of Formula I can be prepared in micronized and nonmicronized forms. In some embodiments, the compound of Formula I used in the dosage forms of the invention is micronized. The micronized drug substance can be prepared, for example, by jet milling. Particle size can be measured by laser diffraction methods (e.g., USP 42 <429> Light Diffraction Measurement of Particle Size). Nonmicronized compound can have a particle diameter size [d90] of about 30 μm or larger. In some embodiments, nonmicronized compound has a particle diameter size [d90] of about 30 to about 500 μm, about 50 to about 400 μm, about 100 to about 350 μm, or about 150 to about 300 μm.
# Micronized batches of the compound of Formula I were prepared by jet milling using a nitrogen gas feed. The nonmicronized starting material was prepared in a manner similar to the process for preparing crystalline compound of Formula I described in U.S. Pat. No. 10,550,105. Particle size was measured by laser diffraction according to USP 42 <429> using a Malvern Mastersizer 3000 equipped with a Hydro MV wet dispersion sample unit. Particle size diameters [d90] for two different lots were measured as 10.851 and 8.715 μm, respectively.
# [2] = Relative bioavailability PK of micronized vs nonmicronized 100 mg tablets in Phase 1 patients; type: in vivo, human
# Method: Assessments conducted after C1D1 will be the same as described for patients in the dose escalation cohorts following Schedule 2. Based on emerging PK data, additional Relative Bioavailability Cohorts at additional dose levels may be explored.
# Patients enrolled in the Relative Bioavailability Cohort(s) will have an additional visit 7 days (±3 days) prior to C1D1. […] On C1D-7 patients will be attached to a Holter monitor that will run continuously for ˜24 hours (i.e., until patients return on the following day for the 24-hr PK sample collection on C1D-6). […] On C1D1, patients will be attached to a Holter monitor that will run continuously for ˜24 hours (i.e., immediately before the study drug dose on C1D2). […] Samples collected after C1D2 are not considered part of the relative Bioavailability data set.
# Plasma samples were collected at 0.5, 1, 2, 4, 6, 8, 12 and 24 hours post dose. […] Plasma samples were collected at 0.5, 1, 2, 4, 6, 8, 12 and 24 hours post dose.
# [3] = Plasma pharmacokinetics after oral tablets and capsules in male Beagle dogs; type: in vivo; conditions: for AUC / Cmax: male, Beagle, dog, plasma, po, 100 mg
# Excerpt: The objective of this study was to determine the plasma pharmacokinetic profiles of the compound of Formula I in male Beagle dogs after oral administration and to assess the exposure of tablets and capsules formulations.
# Male Beagle dogs were purchased from Jiangsu Johnsen Bioresource CO., Ltd. The animals were 1-2.5 years old on the dosing day. All animals were housed in a 12-hour light/12-hour dark cycle environment. Animals for oral (PO) groups were fasted overnight prior to dosing and were fed approximately 2 hours after dosing. This study was approved by the Pharmaron Institutional Animal Care and Use Committee.
# The compound of Formula I was used for the dose formulation and standard stock solution preparation. […] For the animals in PO groups, pentagastrin ([…], i.m.) was administrated 20 minutes before dosing PO formulation and 1.5 hours after the first pentagastrin dosing. The dosing volume was 0.024 mL/kg, the concentration was […] in DMSO/1 N NaOH/PBS. The dosing volume, detailed dosing time of pentagastrin was recorded. 10 mL of 0.001 N HCl was used to wash the gavage catheter for each animal.
# Blood samples (0.5 mL) were collected from each animal via jugular veins. These blood samples were placed into tubes containing dipotassium ethylenediaminetetraacetic acid and then centrifuged at 2000 g for 10 minutes at 4° C. to produce plasma. All samples were stored at −75±15° C. until analysis.
# Compound of Formula I was prepared in dimethyl sulfoxide with vortex at 1 mg/mL (free form) as standard stock solution. Calibration standard working solutions were prepared at concentrations of 5, 10, 20, 50, 100, 500, 1000, 5000, 10000 and 20000 ng/mL by serial dilution of the standard stock solution by 50% acetonitrile in water. […] These QC samples were prepared on the day of analysis in the same way as calibration standards.
# 5 μL of each calibration standard working solution (5, 10, 20, 50, 100, 500, 1000, 5000, 10000 and 20000 ng/mL) was added to 50 μL of blank Beagle Dog plasma to achieve calibration standards of 0.5-2000 ng/mL (0.5, 1, 2, 5, 10, 50, 100, 500, 1000, 2000 ng/mL) in a total volume of 55 μL. […] These QC samples were prepared on the day of analysis in the same way as calibration standards. 55 μL of standards, 55 μL of QC samples or 55 μL of unknown samples (50 μL of plasma sample with 5 μL 50% acetonitrile in water) were mixed with 200 μL of acetonitrile containing IS (internal standard, dexamethasone) to precipitate proteins. Then the samples were vortexed for 30 sec.
# Data Acquisition was Performed by Sciex Analyst 1.6.3 Software (AB Sciex, Forster City, CA). Pharmacokinetic parameters were calculated by non-compartmental analysis (Phoenix TM WinNonlin® 6.1). The linear trapezoidal algorithm was used for AUC calculation.
# [4] = First-in-human Phase 1 dose escalation study: treatment-related adverse events, safety; type: in vivo
# Excerpt: This protocol is a first-in-human, Phase 1, multi-center, open-label, study designed to evaluate the safety profile, including any dose-limiting toxicities (DLTs), and (maximum tolerated dose) MTD of the compound of Formula I administered as a single agent PO and establish the recommended phase 2 dose (RP2D) of the compound of Formula I. The study has a Dose Escalation Phase, which includes a relative bioavailability assessment, followed by a Dose Expansion Phase in patients with selected tumor types.
# In the Dose Escalation Phase of the study, patients with any histologically- or cytologically-confirmed solid tumor type (which may include “solid” lymphoma [e.g., mantle cell]) that is refractory to standard therapy and for whom no therapy exists that would be curative or might provide clinical benefit and therefore for whom experimental therapy is a reasonable option are eligible. In the Dose Expansion Phase of the study, the RP2D will be investigated in the following cancer types: squamous cell carcinoma of the lung (SCCL), head and neck squamous cell carcinoma (HNSCC), hormone receptor positive (HR+) breast cancer, and PARP7 amplified cancer.
# Two schedules are employed in the Dose Escalation Phase: • Schedule 1 will examine a 21-day cycle with 14 days of the compound of Formula I administered at doses of 25 mg, 50 mg, 100 mg, 200 mg, 300 mg, and 500 mg BID followed by a rest period. • Schedule 2 will examine a 21-day continuous dosing cycle at doses of 100 mg, 200 mg, 300 mg, and 400 mg BID.
# The most frequent compound of Formula I treatment-related AEs in the ongoing Phase 1 escalation study are dysgeusia or taste disorder (36%), decreased appetite (15%), fatigue (14%), nausea (12%), and anemia, constipation, diarrhea and decreased weight (10%) each.
# Overall, the safety profile of the compound of Formula I is considered manageable at the RP2D for combination with pembrolizumab.
# [5] = cited from earlier work
# [6] = 100 mg capsule, micronized vs nonmicronized
# [7] = particle size d90:d50 18:5 μm (micronized)
# [8] = particle size d90:d50 228:108 μm (nonmicronized)
# [9] = patients, ongoing Phase 1 escalation study
# [10] = NSCLC patients, second or third line, Keynote-010 (n=682)
compound,measurement,setting,value
"C[C@@H](COCCC(=O)N1CCN(c2ncc(C(F)(F)F)cn2)CC1)Nc1cn[nH]c(=O)c1C(F)(F)F [compound of Formula I, 5-[[(2S)-1-(3-oxo-3-[4-[5-(trifluoromethyl)pyrimidin-2-yl]piperazin-1-yl]propoxy)propan-2-yl]amino]-4-(trifluoromethyl)-2,3-dihydropyridazin-3-one]",particle diameter size d[90],[1]; micronized compound (jet milled),10.851 μm and 8.715 μm
same,particle diameter size d[90],[1]; nonmicronized compound,228.474 μm
same,"increase in mean AUC, micronized vs nonmicronized tablet",[2],about 1.5 fold
same,"increase in mean Cmax, micronized vs nonmicronized tablet",[2],about 2.4 fold
same,increase in AUC by micronization,[3]; [6],2.8 fold
same,increase in Cmax by micronization,[3]; [6],4.7 fold
same,"exposure, micronized capsules (Group E) versus nonmicronized capsules (Group D)",[3]; 100 mg/dog PO,much higher
same,oral exposure versus dose level,"[3]; Groups A, B and C, tablets 25, 50, 100 mg/dog","increased with the dose level, though not linear"
same,AUC,[3]; [7],9560 ng·h/mL
same,Cmax,[3]; [7],1670 ng/mL
same,AUC,[3]; [8],3400 ng·h/mL
same,Cmax,[3]; [8],356 ng/mL
same,safety profile / tolerability,"[4]; 50 patients, first-in-human Phase 1 trial",favorable safety profile; also recorded: well tolerated
same,treatment-related AE: anemia,[4]; [9],10%
same,treatment-related AE: constipation,[4]; [9],10%
same,treatment-related AE: decreased appetite,[4]; [9],15%
same,treatment-related AE: decreased weight,[4]; [9],10%
same,treatment-related AE: diarrhea,[4]; [9],10%
same,treatment-related AE: dysgeusia or taste disorder,[4]; [9],36%
same,treatment-related AE: fatigue,[4]; [9],14%
same,treatment-related AE: nausea,[4]; [9],12%
"pembrolizumab: humanized antibody that binds to human PD-1, approved by the U.S. FDA",adverse reactions leading to discontinuation,[5]; [10],8%
same,pneumonitis leading to discontinuation (most common),[5]; [10],1.8%
same,"most frequent treatment-related AEs (fatigue, musculoskeletal pain, decreased appetite, pruritus, diarrhea, nausea, rash, pyrexia, cough, dyspnea, constipation, pain, abdominal pain), reported in",[5]; single agent (Merck 2021),> 20%
